2 substances from publication PMC4757834, “The N-terminal sequence of the extrinsic PsbP protein modulates the redox potential of Cyt b559 in photosystem II” (Scientific Reports, 2016) can be followed below.

Where no end group is shown, it is not given here.

Assay [1] deals with OEC (Mn4CaO5 cluster) in PSII. The assay is described as follows: Light-induced S2/S1 FTIR difference spectroscopy. The class given is biochemical, spinach. The following applies: peptide:PSII 200:1, pH 6.0, 5 mM CaCl2, 5 mM NaCl, 10 °C, 1800–1200 cm^-1.
Procedure: FTIR measurements were performed following the method reported previously[20][61] with some modifications. NaCl-washed PSII membranes were suspended (2.5 mg Chl ml^−1) in a buffer containing 4 mM MES-NaOH, 40 mM sucrose, 5 mM CaCl2, and 5 mM NaCl (pH 6.0). […] The resultant sample film was moderately hydrated by sealing the cell using another CaF2 plate and a silicone spacer (0.5 mm in thickness) enclosing 2 μl of 40% (v/v) glycerol solution without touching the sample. The sample temperature was adjusted to 10 °C by circulating cold water in a copper holder. Light-induced S2-minus-S1 difference spectra (S2/S1 spectra) were recorded using a spectrophotometer (VERTEX 80, Bruker Optics) equipped with an MCT detector (InfraRed D313-L) at 4 cm^−1 resolution (20, 61). A Ge filter to cut IR light at >2200 cm^−1 (Andover, 4.50ILP-25) was placed in the IR path in front of the sample to improve the signal-to-noise ratios of spectra as well as to block a He-Ne laser beam from the interferometer. Illumination was provided by a Q-switched Nd:YAG laser (INDI-40-10; 532 nm, ~ 7 ns full width at half-maximum, and ~ 7 mJ pulse^–1 cm^–2 at the sample surface; Spectra-Physics, UK). Single-beam spectra were recorded with 100 scans (~50-s accumulation) before and after single-flash illumination to calculate a difference spectrum, and the measurements were repeated 20 times with an interval of 25 min.
A further assay deals with Cyt b559 in PSII. Put plainly: Redox forms of Cyt b559 by stepwise reductive titration (absorption difference spectroscopy), reconstituted NaCl-washed PSII membranes. The class given is biochemical, spinach.
The subject of another assay is PSII. The assay is described as follows: Oxygen-evolving activity of reconstituted PSII membranes (Clark-type oxygen electrode). The conditions noted are these: NaCl-washed PSII membranes, peptide:PSII 50:1 to 200:1, 5 mM CaCl2 and 5 mM NaCl, pH 6.5, 0.4 mM DCBQ; membranes without reconstitution = 100% (251 ~ 317 μmol O2 mg Chl^-1 h^-1); n = 3. The class given is biochemical, spinach.

Assay [2] concerns the target PsbE protein, the α subunit of Cytochrome b559 (spinach (endogenous in PSII membranes from spinach leaves)) (UniProt P69383).

Source text for Cyt b559 in PSII: Hydroquinone-reduced minus ferricyanide-oxidized (1), ascorbate-reduced minus ferricyanide-oxidized (2), and dithionite-reduced minus ferricyanide-oxidized (3) difference spectra were used to estimate the amount of the HP, IP, and LP forms of Cyt b559, respectively. Each spectrum was an average of three independent measurements and normalized to the peak of the dithionite-reduced minus ferricyanide-oxidized difference spectrum. (B) Relative content of the HP, IP, and LP forms of Cyt b559 determined by stepwise reductive titration. Total amount of Cyt b559 is set as 100%. […] (*p < 0.05, Student’s t-test); n = 3, error bars = SEM.
PSII membranes, isolated from spinach leaves[56], were treated for 30 min with the buffer containing 1.5 M NaCl on ice to remove PsbP and PsbQ. […] In the control, MES buffer, without any peptide fragments, was used. After incubation for 1 h on ice, the reconstituted PSII samples were carried forward to determine the state of their redox forms of Cyt b559, oxygen-evolving activity, FTIR analysis and TL measurements. Where indicated, PSII samples were washed once, before the analysis, with buffer (25 mM MES-NaOH, pH 6.5, 5 mM NaCl, 5 mM CaCl2, 0.4 M sucrose).
PSII membranes were suspended at a Chl concentration of 75 μg ml^−1 in buffer (25 mM MES-NaOH, pH 6.5, 5 mM NaCl, 5 mM CaCl2, 0.4 M sucrose) and the different redox forms of Cyt b559 were determined at a wavelength of 559 nm, from the reduced minus oxidized difference absorption spectra between 520 and 580 nm, recorded as described previously[34][35][57] using a spectrophotometer equipped with a head-on photomultiplier tube (UV-2600; Shimadzu, Kyoto, Japan). Complete oxidation of Cyt b559 was achieved by treatment with 2 mM potassium ferricyanide (midpoint redox potential Em ~ 430 mV) followed by its stepwise reduction. The reduction of the HP form (Em ~ 400 mV), the IP form (Em ~ 200 mV), and the LP form (Em ~ 50 mV) of Cyt b559[7][58][59][60] were performed by adding 4 mM hydroquinone (Em ~ 280 mV), 5 mM sodium ascorbate (Em ~ 60 mV), and 10 mM sodium dithionite (Em ~ −660 mV) in a step-wise manner. The absorption difference at 559 nm, in difference spectra of hydroquinone-reduced minus ferricyanide-oxidized, ascorbate-reduced minus hydroquinone-reduced, and dithionite-reduced minus ascorbate-reduced Cyt b559, enable the content of HP, IP, and LP form of Cyt b559, to be deduced, respectively. Baselines were set by drawing a straight line between absorption differences at 540 and 580 nm.

Turning to “pN15-∆A^1: pN15 lacking its N-terminal Ala^1 (YGEAANVFGKPKKN-NH2; UniProt P12302 83-96, looked up, fragment)”, the “S2/S1 FTIR spectral intensity” value in assay [1] is listed as “moderate inhibitory effect”. In addition, in the assay with Cyt b559 in PSII (NaCl-washed PSII membranes reconstituted with PsbP proteins at 4:1 or peptides at 200:1 (to PSII), 1 h on ice, 25 mM MES-NaOH pH 6.5, 5 mM NaCl, 5 mM CaCl2, 0.4 M sucrose, 559 nm, total Cyt b559 = 100%, n = 3 (controls: intact 59.3, NaCl-washed 33.7)), the “Relative content of the HP form of Cyt b559” value is 38.2%. For the same substance, the “Relative content of the LP form of Cyt b559” value in the assay on Cyt b559 in PSII (NaCl-washed PSII membranes reconstituted with PsbP proteins at 4:1 or peptides at 200:1 (to PSII), 1 h on ice, pH 6.5, total Cyt b559 = 100%, n = 3 (controls: intact 8.7, NaCl-washed 10.4)) was 13.6%. Also, the “Relative content of the IP form of Cyt b559” value in the assay with Cyt b559 in PSII (NaCl-washed PSII membranes reconstituted with PsbP proteins at 4:1 or peptides at 200:1 (to PSII), 1 h on ice, pH 6.5, total Cyt b559 = 100%, n = 3 (controls: intact 32.0, NaCl-washed 55.9)) is reported as 48.2%. In addition, in the assay with Cyt b559 in PSII (reconstituted NaCl-washed PSII membranes, pH 6.5), the “Restoration of HP Cyt b559 (in words)” value is “This effect was not observed”. Further, in the assay on PSII, the “Rate of oxygen evolution (in words)” value is on record as “none of these mutated pN15 fragments showed any inhibitory effect on oxygen evolution”.

For the substance “recombinant PsbP-WT protein from Spinacia oleracea (from UniProt P12302 82-267) (natural protein)”, the content of the HP form of Cyt b559 in NaCl-washed PSII membranes after reconstitution at 4:1 (PsbP:PSII); about 34% without reconstitution in assay [2] came to 58%.
